By IC50 is commonly meant the midpoint of a concentration-inhibition curve.

Active and inactive are the calls of the source. No cut-off for these calls is given here.

Here are results for 2 molecules from ChEMBL document CHEMBL4364346, “Structure optimization of a new class of PPARγ antagonists” (Bioorg Med Chem, 2019).

Series [1] addresses T1, Peroxisome proliferator-activated receptor gamma (Homo sapiens, UniProt P37231).
T1 sequence (P37231 whole entry): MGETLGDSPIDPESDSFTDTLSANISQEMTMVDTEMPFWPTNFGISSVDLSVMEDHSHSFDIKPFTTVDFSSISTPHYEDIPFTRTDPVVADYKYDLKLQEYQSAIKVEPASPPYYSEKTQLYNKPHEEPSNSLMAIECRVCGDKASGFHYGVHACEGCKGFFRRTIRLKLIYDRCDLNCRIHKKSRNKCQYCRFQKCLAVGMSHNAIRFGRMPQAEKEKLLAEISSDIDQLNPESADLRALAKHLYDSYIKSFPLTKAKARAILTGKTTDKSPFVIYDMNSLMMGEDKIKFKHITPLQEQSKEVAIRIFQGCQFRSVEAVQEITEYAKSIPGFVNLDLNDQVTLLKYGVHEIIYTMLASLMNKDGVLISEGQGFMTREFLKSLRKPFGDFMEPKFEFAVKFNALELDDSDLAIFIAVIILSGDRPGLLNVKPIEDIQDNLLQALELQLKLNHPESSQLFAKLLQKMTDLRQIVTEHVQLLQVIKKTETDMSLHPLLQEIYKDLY
Nature of the series: Antagonist actvity in pFA-GAL4-DBD fused PPARgamma LBD (unknown origin) transfected in HEK293T cells assessed as inhibition of rosiglitazone-induced PPARgamma transactivation incubated for 24 hrs by luciferase reporter gene assay. It is filed as cell-based. The note with it: read-out: IC50. For orientation: A reporter such as luciferase makes a cellular process visible.

Series [2] has as its target T2, Bile acid receptor (Homo sapiens) (UniProt Q96RI1).
T2 sequence (whole entry): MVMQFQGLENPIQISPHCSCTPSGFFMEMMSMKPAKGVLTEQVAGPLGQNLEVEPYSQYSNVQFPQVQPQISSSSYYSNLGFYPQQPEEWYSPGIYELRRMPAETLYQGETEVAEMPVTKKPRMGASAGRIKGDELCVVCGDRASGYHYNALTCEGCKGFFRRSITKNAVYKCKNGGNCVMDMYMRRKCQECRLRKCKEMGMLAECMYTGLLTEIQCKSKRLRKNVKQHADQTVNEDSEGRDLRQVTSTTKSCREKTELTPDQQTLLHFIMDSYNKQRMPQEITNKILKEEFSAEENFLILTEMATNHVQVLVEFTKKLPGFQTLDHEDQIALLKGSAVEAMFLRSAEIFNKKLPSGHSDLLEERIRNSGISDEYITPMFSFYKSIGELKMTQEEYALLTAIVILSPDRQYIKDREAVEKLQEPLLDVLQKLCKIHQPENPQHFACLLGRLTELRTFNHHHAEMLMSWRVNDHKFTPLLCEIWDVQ
Nature of the series: Agonist activity at recombinant human pFA-CMV fused FXR LBD transfected in HEK293T cells assessed as FXR activation at 1 uM incubated for 12 to 14 hrs by dual glo luciferase reporter gene assay. It is filed as cell-based.

Series [3] can be described thus: Plasma concentration in Swiss CD1 mouse at 10 mg/kg, ip measured upto 4 hrs by LC-MS analysis. It is filed as ADME, organism-based.
Series [4] has as its target Oxysterols receptor LXR-alpha (Homo sapiens) (UniProt Q13133). Nature of the series: Antagonist activity at recombinant human pFA-CMV fused LXRalpha LBD transfected in HEK293T cells assessed as reduction in T0901317-induced LXRalpha activation at 1 uM incubated for 12 to 14 hrs by dual glo luciferase reporter gene assay.
For series [5], the target named is T3, Vitamin D3 receptor (Homo sapiens) (UniProt P11473).
T3 sequence (whole entry): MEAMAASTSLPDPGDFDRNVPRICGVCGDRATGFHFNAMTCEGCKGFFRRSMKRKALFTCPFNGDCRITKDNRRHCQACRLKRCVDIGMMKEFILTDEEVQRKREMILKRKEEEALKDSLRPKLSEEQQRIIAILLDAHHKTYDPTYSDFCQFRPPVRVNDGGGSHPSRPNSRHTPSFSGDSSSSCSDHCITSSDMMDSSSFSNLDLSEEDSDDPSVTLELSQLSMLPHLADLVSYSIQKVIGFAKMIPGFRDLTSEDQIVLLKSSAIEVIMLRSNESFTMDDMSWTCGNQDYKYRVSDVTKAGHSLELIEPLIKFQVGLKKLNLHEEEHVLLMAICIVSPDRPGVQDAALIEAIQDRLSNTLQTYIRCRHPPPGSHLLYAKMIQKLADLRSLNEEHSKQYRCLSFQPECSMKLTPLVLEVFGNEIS
Nature of the series: Agonist activity at recombinant human pFA-CMV fused VDR LBD transfected in HEK293T cells assessed as VDR activation at 1 uM incubated for 12 to 14 hrs by dual glo luciferase reporter gene assay. It is filed as cell-based.

The target of series [6] is T2, Bile acid receptor (Homo sapiens). Nature of the series: Antagonist activity at recombinant human pFA-CMV fused FXR LBD transfected in HEK293T cells assessed as reduction in GW4064-induced FXR activation at 1 uM incubated for 12 to 14 hrs by dual glo luciferase reporter gene assay. It is filed as cell-based.
The target in series [7] is T3, Vitamin D3 receptor (Homo sapiens). Briefly: Antagonist activity at recombinant human pFA-CMV fused VDR LBD transfected in HEK293T cells assessed as calcitrol-induced VDR activation at 1 uM incubated for 12 to 14 hrs by dual glo luciferase reporter gene assay. It is filed as cell-based.
Series [8] addresses T4, Peroxisome proliferator-activated receptor delta (Homo sapiens) (UniProt Q03181).
T4 sequence (whole entry): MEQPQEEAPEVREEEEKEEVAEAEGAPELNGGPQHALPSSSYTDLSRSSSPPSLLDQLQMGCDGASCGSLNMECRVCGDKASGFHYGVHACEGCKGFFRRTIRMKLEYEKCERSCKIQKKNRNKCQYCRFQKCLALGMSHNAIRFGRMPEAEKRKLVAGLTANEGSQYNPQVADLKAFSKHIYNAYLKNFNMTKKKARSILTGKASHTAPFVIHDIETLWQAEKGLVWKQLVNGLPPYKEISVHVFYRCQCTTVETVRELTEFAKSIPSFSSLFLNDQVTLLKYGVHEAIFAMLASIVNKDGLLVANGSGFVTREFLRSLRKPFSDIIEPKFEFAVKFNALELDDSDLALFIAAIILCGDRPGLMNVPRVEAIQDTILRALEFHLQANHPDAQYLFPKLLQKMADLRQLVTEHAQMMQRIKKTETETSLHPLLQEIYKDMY
Nature of the series: Antagonist activity at recombinant human pFA-CMV fused PPARdelta LBD transfected in HEK293T cells assessed as reduction in L165041-induced PPARdelta activation at 1 uM incubated for 12 to 14 hrs by dual glo luciferase reporter gene assay. The series is classed as cell-based.

Series [9] deals with T4, Peroxisome proliferator-activated receptor delta (Homo sapiens). Briefly: Agonist activity at recombinant human pFA-CMV fused PPARdelta LBD transfected in HEK293T cells assessed as PPARdelta activation at 1 uM incubated for 12 to 14 hrs by dual glo luciferase reporter gene assay. The series is classed as cell-based.

Chain of Oxysterols receptor LXR-alpha (Homo sapiens) (Q13133 whole entry, looked up, the tested form may be a part): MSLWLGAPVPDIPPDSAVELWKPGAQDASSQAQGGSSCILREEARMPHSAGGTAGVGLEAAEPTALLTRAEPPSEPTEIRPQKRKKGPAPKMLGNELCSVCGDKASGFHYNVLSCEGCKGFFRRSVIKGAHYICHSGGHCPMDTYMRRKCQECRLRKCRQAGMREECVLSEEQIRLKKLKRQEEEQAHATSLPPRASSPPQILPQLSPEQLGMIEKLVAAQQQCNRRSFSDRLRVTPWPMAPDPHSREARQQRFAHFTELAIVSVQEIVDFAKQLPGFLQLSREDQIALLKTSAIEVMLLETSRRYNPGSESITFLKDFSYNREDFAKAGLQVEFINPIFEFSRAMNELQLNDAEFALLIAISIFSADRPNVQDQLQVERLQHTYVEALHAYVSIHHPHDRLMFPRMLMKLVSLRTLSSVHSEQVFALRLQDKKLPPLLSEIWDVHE

As for `CCC/C(=C\c1cc(OCc2ccc3nc(C(F)(F)F)cc(OC)c3c2)ccc1OCCN1CCN(C)CC1)C(=O)O`, in series [1], the IC50 worked out at 4.7 µM. For the same molecule, the result in series [2], in [4], in series [5], in series [6], in [7] and in series [8] was inactive. In addition, the result in series [9] was inactive. In series [3], this molecule displayed a concentration at 4 h of 59 nM.
`CCC/C(=C\c1cc(OCc2ccc3nc(C(F)(F)F)cc(OC)c3c2)ccc1OCC1CCN(C)CC1)C(=O)O`: in series [1], the IC50 was determined as 2.5 µM. The result in series [2], in [4], in series [5], in [6], in [7] and in [8] was inactive. Further, the outcome in series [9] was inactive. The concentration at 4 h in [3] turned out to be 115 nM.
